In patent US9505728B2, “Triazolone compounds and uses thereof” (INCEPTION 2, INC., priority 2012, dated 2016):

What follows are compounds tested against T1, Human PPARα (Homo sapiens, UniProt Q07869) (assay: Human PPARα Reporter Assay (luciferase)). Details: human PPARα reporter cells, overnight incubation, antagonism; read-out: Luciferase IC50.
T1 construct: host or cells: proprietary non-human mammalian cells
T1 sequence (Q07869 1-468): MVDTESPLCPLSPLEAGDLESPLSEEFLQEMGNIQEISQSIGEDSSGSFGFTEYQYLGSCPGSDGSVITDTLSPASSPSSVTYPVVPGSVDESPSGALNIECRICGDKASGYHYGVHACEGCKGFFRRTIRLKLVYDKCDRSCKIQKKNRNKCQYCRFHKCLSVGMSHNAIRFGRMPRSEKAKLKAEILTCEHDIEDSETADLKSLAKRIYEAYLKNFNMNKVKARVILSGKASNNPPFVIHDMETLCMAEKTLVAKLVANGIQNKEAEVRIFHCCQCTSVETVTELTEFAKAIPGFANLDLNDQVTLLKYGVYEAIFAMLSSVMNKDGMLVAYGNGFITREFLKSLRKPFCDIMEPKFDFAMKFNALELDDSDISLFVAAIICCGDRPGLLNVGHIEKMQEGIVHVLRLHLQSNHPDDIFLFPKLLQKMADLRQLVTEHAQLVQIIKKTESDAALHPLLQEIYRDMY
Assay type: cell-based
Procedure: Human PPARα Reporter Assay
The screening of test compounds for agonist or antagonist activities against human PPARα receptors was performed using a commercial kit, Human PPARα Reporter Assay System (Indigo Biosciences, Cat. #IB00111).
This nuclear receptor assay system utilizes proprietary non-human mammalian cells engineered to provide constitutive, high-level expression of Human PPARα. Because these cells incorporate a PPARα-responsive luciferase reporter gene, quantifying expressed luciferase activity provides a sensitive surrogate measure of PPARα activity in the treated cells. The primary application of this reporter assay system is in the screening of test samples to quantify any functional activity, either agonist or antagonist, that they may exert against human PPARα.
Briefly, reporter cells are dispensed into wells of the assay plate and then immediately dosed with test compounds. Following an overnight incubation, the treatment media is discarded and Luciferase Detection Reagent (LDR) is added. The intensity of light emission from the ensuing luciferase reaction provides a sensitive measure that is directly proportional to the relative level of PPARα activation in the reporter cells.

| SMILES | IC50 |
| --- | --- |
| CCn1c(CCCc2ccc(-c3cccc(CC(=O)O)c3)cc2)nn(Cc2ccc(C(C)(C)C)s2)c1=O [Example 54, 2-(4′-(3-(1-((5-(tert-Butyl)thiophen-2-yl)methyl)-4-ethyl-5-oxo-4,5-dihydro-1H-1,2,4-triazol-3-yl)propyl)-[1,1′-biphenyl]-3-yl)acetic acid] | 499 nM |
| COc1ccc(-c2ccc(CCCc3nn(Cc4ccc(C(C)(C)C)cc4)c(=O)n3CC(F)(F)F)cc2)cc1CC(=O)O [Example 55, 2-(4′-(3-(1-(4-(tert-Butyl)benzyl)-5-oxo-4-(2,2,2-trifluoroethyl)-4,5-dihydro-1H-1,2,4-triazol-3-yl)propyl)-4-methoxy-[1,1′-biphenyl]-3-yl)acetic acid] | 250 nM |
| CCn1c(CCCc2ccc(-c3cccc(C(O)C(=O)NC4CC4)c3)cc2)nn(Cc2ccc(C(C)(C)C)cc2)c1=O (stereo not shown) [Example 56, 2-(4′-(3-(1-(4-(tert-Butyl)benzyl)-4-ethyl-5-oxo-4,5-dihydro-1H-1,2,4-triazol-3-yl)propyl)-[1,1′-biphenyl]-3-yl)-N-cyclopropyl-2-hydroxyacetamide] | 330 nM |
| CCn1c(CCCc2ccc(-c3cccc(C(=O)C(=O)NC4CC4)c3)cc2)nn(Cc2ccc(C(C)(C)C)cc2)c1=O [Example 57, 2-(4′-(3-(1-(4-(tert-Butyl)benzyl)-4-ethyl-5-oxo-4,5-dihydro-1H-1,2,4-triazol-3-yl)propyl)-[1,1′-biphenyl]-3-yl)-N-cyclopropyl-2-oxoacetamide] | 175 nM |
| CCn1c(CCCc2ccc(-c3ccc(OC)c(N)n3)cc2)nn(Cc2ccc(C(C)(C)C)cc2)c1=O [Example 58, 3-{3-[4-(6-Amino-5-methoxy(2-pyridyl))phenyl]propyl}-1-{[4-(tert-butyl)phenyl]methyl}-4-ethyl-1,2,4-triazolin-5-one] | 71 nM |
| CCn1c(CCCc2ccc(-c3ccc(OC)c(NS(=O)(=O)c4ccccc4)n3)cc2)nn(Cc2ccc(C(C)(C)C)cc2)c1=O [Example 59, 1-{[4-(tert-Butyl)phenyl]methyl}-4-ethyl-3-[3-(4-{5-methoxy-6-[(phenylsulfonyl)amino](2-pyridyl)}phenyl)propyl]-1,2,4-triazolin-5-one] | 3 nM |
| CCOc1ccc(-c2ccc(CCCc3nn(Cc4ccc(C(C)(C)C)cc4)c(=O)n3CC)cc2)nc1N [Example 60, 3-{3-[4-(6-Amino-5-ethoxy(2-pyridyl))phenyl]propyl}-1-{[4-(tert-butyl)phenyl]methyl}-4-ethyl-1,2,4-triazolin-5-one] | 63 nM |
| CCSc1ccc(-c2ccc(CCCc3nn(Cc4ccc(C(C)(C)C)cc4)c(=O)n3CC)cc2)cc1CC(=O)O [Example 61, 2-(5-{4-[3-(1-{[4-(tert-Butyl)phenyl]methyl}-4-ethyl-5-oxo(1,2,4-triazolin-3-yl))propyl]phenyl}-2-ethylthiophenyl)acetic acid] | 20 nM |
| CCOc1ccc(-c2ccc(CCCc3nn(Cc4ccc(C(C)(C)C)cc4)c(=O)n3CC)cc2)nc1NS(=O)(=O)c1ccccc1 [Example 62, 1-{[4-(tert-Butyl)phenyl]methyl}-3-[3-(4-{5-ethoxy-6-[(phenylsulfonyl)amino](2-pyridyl)}phenyl)propyl]-4-ethyl-1,2,4-triazolin-5-one] | 5 nM |
| CCn1c(CCCc2ccc(-c3ccc(OC)c(CC(=O)O)c3)cc2)nn(Cc2ccc(C3(F)COC3)cc2)c1=O [Example 63] | 562 nM |
| CCn1c(CCCc2ccc(-c3ccc(SC)c(CC(=O)O)c3)cc2)nn(Cc2ccc(C(C)(C)C)cc2)c1=O [Example 64, 2-(5-{4-[3-(1-{[4-(tert-Butyl)phenyl]methyl}-4-ethyl-5-oxo(1,2,4-triazolin-3-yl))propyl]phenyl}-2-methylthiophenyl)acetic acid] | 38 nM |
| CCn1c(CCCc2ccc(-c3ccc(OC)c(C(=O)O)c3)cc2)nn(Cc2ccc(C(C)(C)C)cc2)c1=O [Example 65, 4′-(3-(1-(4-(tert-Butyl)benzyl)-4-ethyl-5-oxo-4,5-dihydro-1H-1,2,4-triazol-3-yl)propyl)-4-methoxy-[1,1′-biphenyl]-3-carboxylic acid] | 6 nM |
| CCOc1ccc(-c2ccc(CCCc3nn(Cc4ccc(C(C)(C)C)cc4)c(=O)n3CC)cc2)cc1C(=O)O [Example 66, 4′-(3-(1-(4-(tert-Butyl)benzyl)-4-ethyl-5-oxo-4,5-dihydro-1H-1,2,4-triazol-3-yl)propyl)-4-ethoxy-[1,1′-biphenyl]-3-carboxylic acid] | 3 nM |
| CCn1c(CCCc2ccc(-c3cccc(CC(=O)O)c3)cc2)nn(Cc2ccc(C(C)(C)C)c(Br)c2)c1=O [Example 67, 2-(4′-(3-(1-(3-Bromo-4-(tert-butyl)benzyl)-4-ethyl-5-oxo-4,5-dihydro-1H-1,2,4-triazol-3-yl)propyl)-[1,1′-biphenyl]-3-yl)acetic acid] | 88 nM |
| CCCn1c(CCCc2ccc(-c3ccc(OCC)c(CC(=O)O)c3)cc2)nn(Cc2ccc(C(C)(C)C)cc2)c1=O [Example 68, 2-(4′-(3-(1-(4-(tert-Butyl)benzyl)-5-oxo-4-propyl-4,5-dihydro-1H-1,2,4-triazol-3-yl)propyl)-4-ethoxy-[1,1′-biphenyl]-3-yl)acetic acid] | 32 nM |

More lines, now with the values ahead:

| IC50 | SMILES |
| --- | --- |
| 24 nM | CCCCn1c(CCCc2ccc(-c3ccc(OCC)c(CC(=O)O)c3)cc2)nn(Cc2ccc(C(C)(C)C)cc2)c1=O [Example 69, 2-(4′-(3-(4-Butyl-1-(4-(tert-butyl)benzyl)-5-oxo-4,5-dihydro-1H-1,2,4-triazol-3-yl)propyl)-4-ethoxy-[1,1′-biphenyl]-3-yl)acetic acid] |
| 270 nM | CCn1c(CCCc2ccc(-c3ccc4[nH]cc(C(=O)O)c4c3)cc2)nn(Cc2ccc(C(C)(C)C)cc2)c1=O [Example 70, 5-(4-(3-(1-(4-(tert-Butyl)benzyl)-4-ethyl-5-oxo-4,5-dihydro-1H-1,2,4-triazol-3-yl)propyl)phenyl)-1H-indole-3-carboxylic acid] |
| 865 nM | CCCc1ccc(S(=O)(=O)Nc2ccc(-c3ccc(CCCc4nn(Cc5ccc(C(C)(C)C)cc5)c(=O)n4CC)cc3)nc2)cc1 [Example 71, 1-{[4-(tert-Butyl)phenyl]methyl}-4-ethyl-3-{3-[4-(5-{[(4-propylphenyl)sulfonyl]amino}(2-pyridyl))phenyl]propyl}-1,2,4-triazolin-5-one] |
| 208 nM | CCCc1ccc(S(=O)(=O)Nc2cccc(-c3ccc(CCCc4nn(Cc5ccc(C(C)(C)C)cc5)c(=O)n4CC)cc3)n2)cc1 [Example 72, 1-{[4-(tert-Butyl)phenyl]methyl}-4-ethyl-3-{3-[4-(6-{[(4-propylphenyl)sulfonyl]amino}(2-pyridyl))phenyl]propyl}-1,2,4-triazolin-5-one] |
| 62 nM | CCn1c(CCCc2ccc(-c3cccc(NS(=O)(=O)c4ccc(-c5ccc(C)cc5)cc4)n3)cc2)nn(Cc2ccc(C(C)(C)C)cc2)c1=O [Example 73, 1-{[4-(tert-Butyl)phenyl]methyl}-4-ethyl-3-(3-{4-[6-({[4-(4-methylphenyl)phenyl]sulfonyl}amino)(2-pyridyl)]phenyl}propyl)-1,2,4-triazolin-5-one] |
| 945 nM | CCn1c(CCCc2ccc(-c3cccc(NS(=O)(=O)c4ccc(-c5ccc(OC)cc5)cc4)n3)cc2)nn(Cc2ccc(C(C)(C)C)cc2)c1=O [Example 74, 1-{[4-(tert-Butyl)phenyl]methyl}-4-ethyl-3-(3-{4-[6-({[4-(4-methoxyphenyl)phenyl]sulfonyl}amino)(2-pyridyl)]phenyl}propyl)-1,2,4-triazolin-5-one] |
| 207 nM | CCn1c(CCCc2ccc(-c3ccc(NS(=O)(=O)c4ccc5c(c4)CCN5C(C)=O)cn3)cc2)nn(Cc2ccc(C(C)(C)C)cc2)c1=O [Example 75, 1-Acetyl-5-{[(6-{4-[3-(1-{[4-(tert-butyl)phenyl]methyl}-4-ethyl-5-oxo(1,2,4-triazolin-3-yl))propyl]phenyl}(3-pyridyl))amino]sulfonyl}indoline] |
| 261 nM | C=CCn1c(CCCc2ccc(-c3ccc(OC)c(CC(=O)O)c3)cc2)nn(Cc2ccc(C(C)(C)C)cc2)c1=O [Example 76, 2-(4′-(3-(4-Allyl-1-(4-(tert-butyl)benzyl)-5-oxo-4,5-dihydro-1H-1,2,4-triazol-3-yl)propyl)-4-methoxy-[1,1′-biphenyl]-3-yl)acetic acid] |
| 703 nM | CCn1c(CCCc2ccc(-c3ccc(NS(=O)(=O)c4ccc(Oc5ccc(C(F)(F)F)cn5)cc4)cn3)cc2)nn(Cc2ccc(C(C)(C)C)cc2)c1=O [Example 77, 1-{[4-(tert-Butyl)phenyl]methyl}-4-ethyl-3-[3-(4-{5-[({4-[5-(trifluoromethyl)(2-pyridyloxy)]phenyl}sulfonyl)amino](2-pyridyl)}phenyl)propyl]-1,2,4-triazolin-5-one] |
| 37 nM | CCn1c(CCCc2ccc(-c3cccc(NS(=O)(=O)Cc4ccccc4)n3)cc2)nn(Cc2ccc(C(C)(C)C)cc2)c1=O [Example 78, 1-{[4-(tert-Butyl)phenyl]methyl}-4-ethyl-3-{3-[4-(6-{[benzylsulfonyl]amino}(2-pyridyl))phenyl]propyl}-1,2,4-triazolin-5-one] |
